In US20240315315A1, “COMPOSITION AND METHOD FOR SUPPRESSING PERCEPTION OF SMOKE OR VAPOR ODOR AND FOR SMOKING OR VAPING CESSATION” (University of Kentucky Research Foundation, priority 2023, published 2024):
Entries after “also recorded” stand apart in the source; their conditions may differ. Where two headings read alike, the source gives them in different places.

Key:
[1] = test system: perception of guaiacol; assay: Preliminary screen of odorants with guaiacol (physical mixtures in air); assay type: in vivo, human
Experimental: (§1) In all experiments each subject was presented with odor samples in a unique random order. Subjects were instructed to take a single inhalation of each sample. Samples were separated by rest periods of at least 50 sec to minimize adaptation. Target odorants (1-pentanethiol or guaiacol) were sampled thrice by each subject prior to the initiation of an experiment.
(§2) Dilutions of odorants (0.1-, 0.01-, 0.001-, and 0.0001-fold) were prepared in 10 ml of mineral oil in 250 ml brown Boston round bottles. To mimic the conditions of split-nostril testing, each dilution bottle was paired with a bottle containing 10 ml of mineral oil, with both bottles connected to the same Teflon nozzle. Control samples consisted of pairs of bottles containing 10 ml of mineral oil connected to a Teflon nozzle. Subjects simultaneously sniffed from two nozzles, either an odor dilution through one nostril and a control through the other nostril, or controls through both nostrils. Each subject (n=7-9) sniffed a unique random order of dilutions, rating intensity on a scale of 1-10. Dilutions that gave average intensities in the range of 4-5 were selected.
In preliminary screening only physical mixtures were tested. Air mixing was achieved by attaching pairs of 250 ml brown Boston round bottles, one containing the candidate antagonist odorant and the other the target odorant, to a single nozzle. Controls consisted of pairs of bottles, each containing 10 ml of mineral oil, connected to the same Teflon nozzle. Subjects simultaneously sniffed from two nozzles, either a physical mixture through one nostril and the control through the other nostril, or controls through both nostrils. Each sample was repeated so that each physical mixture was sniffed through the left and right nostrils. Each subject sniffed a unique random order of the samples, rating intensity on a scale of 1-10 using Google forms.
(§3) Like 1-pentanethiol, guaiacol is a key odorant in cigarette smoke and is one of the most important components of a simple mimic of cigarette smoke odor. […] A split-nostril experiment was performed to test these hypotheses and determine whether effects were peripheral or central. […] It was confirmed that effects of the physical and dichorhinic mixtures differed by comparing within-subject responses (FIG. 5B).

[2] = test system: perception of 1-pentanethiol; assay: Split-nostril testing with 1-pentanethiol (physical vs dichorhinic mixtures); assay type: in vivo, human; details: for sex comparison of the effect on perceived intensity of 1-pentanethiol: males vs females, citronellal as physical mixture, pentanol as dichorhinic mixture; for perceived pleasantness of mixtures with 1-pentanethiol: isointense amounts mixed in air (N=29)
Experimental: In all experiments each subject was presented with odor samples in a unique random order. Subjects were instructed to take a single inhalation of each sample. Samples were separated by rest periods of at least 50 sec to minimize adaptation. Target odorants (1-pentanethiol or guaiacol) were sampled thrice by each subject prior to the initiation of an experiment. Dilutions of odorants (0.1-, 0.01-, 0.001-, and 0.0001-fold) were prepared in 10 ml of mineral oil in 250 ml brown Boston round bottles. To mimic the conditions of split-nostril testing, each dilution bottle was paired with a bottle containing 10 ml of mineral oil, with both bottles connected to the same Teflon nozzle. Control samples consisted of pairs of bottles containing 10 ml of mineral oil connected to a Teflon nozzle. Subjects simultaneously sniffed from two nozzles, either an odor dilution through one nostril and a control through the other nostril, or controls through both nostrils. Each subject (n=7-9) sniffed a unique random order of dilutions, rating intensity on a scale of 1-10. Dilutions that gave average intensities in the range of 4-5 were selected. Subjects simultaneously sniffed from two pairs of bottles, one pair per nostril. Treatment samples included no odorant controls and target odorants (1-pentanethiol or guaiacol) presented alone or mixed in air with masking odorants. Subjects experienced every sample four times, balanced so that pairings of odors were given twice per nostril, with the exception of the no odor control (10 ml of mineral oil in each bottle), which was presented twice. Subjects rated intensity on a gLMS scale (0-100) via a graphical user interface on a computer, followed by rating pleasantness on a linear scale of −10 to +10. Redjade software was used to produce unique random orders for each subject and to collect intensity and pleasantness ratings. Exclusion criteria were ratings of 0 on >25% of treatments (to exclude hyposmic subjects) and a Pearson correlation coefficient of <35% on test-retest across all treatments. To discriminate peripheral versus CNS odor interaction effects a split-nostril experiment was performed where odorants delivered simultaneously to different nostrils (dichorhinic mixture) can only affect perception via central nervous system (CNS) circuits versus odorants delivered together to the same nostril (physical mixture) where they can affect perception via both peripheral effects and central effects (FIG. 3A). Furthermore, by mixing the odorants in air there is an elimination of reduced volatilization of 1-pentanethiol as a cause of perception of reduced intensity.

[3] = test system: perception of 1-pentanethiol; assay: Preliminary screening for masking of 1-pentanethiol (solution mixtures on cotton balls, intensity and pleasantness ratings); assay type: in vivo; details: solution mixture screen, both odorants in the same cotton ball, human subjects (n=24)
Excerpt: In all experiments each subject was presented with odor samples in a unique random order. Subjects were instructed to take a single inhalation of each sample. Samples were separated by rest periods of at least 50 sec to minimize adaptation. Target odorants (1-pentanethiol or guaiacol) were sampled thrice by each subject prior to the initiation of an experiment. Dilutions (0.1-, 0.01-, 0.001-, and 0.0001-fold) of candidate masking odorants and the key cigarette smoke odorant 1-pentanethiol were prepared in dimethyl sulfoxide. Subjects (5 male and 7 female) sniffed 0.4 ml volumes absorbed in cotton balls from 0.8 ml brown glass vials and rated intensity on a scale of 1-10. Dilutions that gave average intensities in the range of 4-5 were selected for screening tests in which subjects rated intensity on a scale of 1-100 using a paper form. Subjects also rated whether the overall odor of each sample was pleasant or unpleasant (a forced-choice test). Seventeen (17) odorants commonly used as general masking odors or previously tested as cigarette additives designed to improve the perceived pleasantness of cigarette smoke were screened. […] While efficient for screening odorants, the mixing approach used (soaking of both odorants into the same cotton ball) fails to implicate mechanism because it may allow three potential causes for perception of reduced intensity of a target odor: CNS effects where circuit interactions lead to perception of reduced intensity, peripheral effects such as receptor antagonism, and (potentially) reduced volatilization of 1-pentanethiol. Further experiments were required to determine which of these causes explain the effect of citronellal.

[4] = test system: perception of guaiacol; assay: Split-nostril testing with guaiacol (physical vs dichorhinic mixtures); assay type: in vivo, human; details: for perceived pleasantness of mixtures with guaiacol: compared with guaiacol alone; for effect on perceived intensity of guaiacol: physical mixture (same nostril) vs dichorhinic mixture
Experimental: as §1, §2
Subjects simultaneously sniffed from two pairs of bottles, one pair per nostril. Treatment samples included no odorant controls and target odorants (1-pentanethiol or guaiacol) presented alone or mixed in air with masking odorants. Subjects experienced every sample four times, balanced so that pairings of odors were given twice per nostril, with the exception of the no odor control (10 ml of mineral oil in each bottle), which was presented twice. Subjects rated intensity on a gLMS scale (0-100) via a graphical user interface on a computer, followed by rating pleasantness on a linear scale of −10 to +10. Redjade software was used to produce unique random orders for each subject and to collect intensity and pleasantness ratings. Exclusion criteria were ratings of 0 on >25% of treatments (to exclude hyposmic subjects) and a Pearson correlation coefficient of <35% on test-retest across all treatments.
as §3

[5] = dichorhinic mixture, odorants delivered to different nostrils
[6] = physical mixture delivered to the same nostril, mixed in air
[7] = listed as Methyl-2-methylbutyrate

For CCOC(=O)C(C)CC (centres unmarked) [ethyl-2-methylbutyrate, Ethyl 2-methylbutyrate], the “interaction with guaiacol (perceived intensity)” value (“interaction with guaiacol” below) [1] was “promising effects”.
For CCCCCO [pentanol], the “effect on perceived intensity of 1-pentanethiol” value [2, 5] was “increased the perceived intensity of 1-pentanethiol; also recorded: increases the perceived intensity of 1-pentanethiol only when delivered a dichorhinic mixture”, the “effect on perceived intensity of 1-pentanethiol” value ([2]; dichorhinic mixture, odorants delivered to different nostrils, listed as 1-pentanol) was “additive effect mediated centrally” and the “sex comparison of perceived pleasantness of mixtures with 1-pentanethiol” value ([2]; females (N=19) vs males (N=10)) was “less pleasant than did males; also recorded: more unpleasant than did males”. The “sex comparison of the effect on perceived intensity of 1-pentanethiol” value [2] was “apparent in both sexes, but appeared slightly stronger in females”, the “effect on perceived intensity of 1-pentanethiol” value [2, 6] was “did not result in any reduction in the perceived intensity of 1-pentanethiol” and the “perceived pleasantness, dichorhinic vs physical mixtures with 1-pentanethiol” value ([2]; split-nostril experiment (N=29)) was “less pleasant than physical mixtures; also recorded: more unpleasant than physical mixtures”. For the same molecule, the “perceived pleasantness of mixtures with 1-pentanethiol” value ([2]; split-nostril experiment) was “did not improve perceived pleasantness; also recorded: little affected” and the “effect on perceived intensity of 1-pentanethiol” value [3] was “no effect on perception of 1-pentanethiol”.
CCCC(O)CCC1C(C)CCCC1(C)C (centres unmarked) [Norlimbanol, reference compound] was tested, and the “interaction with guaiacol” value [1] was “three largest interactions” and the “perceived pleasantness of mixtures with guaiacol” value [4] was “no effect of perceived pleasantness”.
CC(C)=CCCC(C)CC=O (centres unmarked) [citronellal] was tested, and the “effect on perceived intensity of 1-pentanethiol” value [2, 5] was “did not affect the perceived intensity of 1-pentanethiol”, the “within-subject comparison of perceived 1-pentanethiol, physical vs dichorhinic mixtures” value ([2]; female participants) was “showed no difference” and the “within-subject comparison of perceived 1-pentanethiol, physical vs dichorhinic mixtures” value ([2]; male participants) was “nearly all males perceived less 1-pentanethiol in physical mixtures”. The “sex comparison of the effect on perceived intensity of 1-pentanethiol” value [2] was “stronger in males than in females”, the “effect on perceived intensity of 1-pentanethiol” value [2, 6] was “reduced the perceived intensity of 1-pentanethiol; also recorded: suppress perception” and the “effect on perceived intensity of 1-pentanethiol” value ([2]; physical mixture delivered to the same nostril, mixed in air, listed as Citronellal) was “decreases the perceived intensity of 1-pentanethiol only when delivered as a physical mixture”. For the same molecule, the “perceived pleasantness of mixtures with 1-pentanethiol” value ([2]; split-nostril experiment) was “improved pleasantness; also recorded: neither pleasant nor unpleasant on average; also recorded: alleviated”, the “effect on perceived intensity of 1-pentanethiol” value [3] was “most effective at reducing the perceived intensity of 1-pentanethiol; also recorded: strongest effect” and the “effect on perceived intensity of 1-pentanethiol” value ([3]; listed as Citronellal) was “most effective masking odor”.
For C=CC(C)(O)CCC=C(C)C (centres unmarked) [Linalool, reference compound], the “interaction with guaiacol” value [1] was “three largest interactions” and the “perceived pleasantness of mixtures with guaiacol” value [4] was “no effect of perceived pleasantness”.
For CCCCCS [1-pentanethiol], the “perceived pleasantness of the odorant alone” value ([2]; split-nostril experiment) was “moderately unpleasant”.
In the case of CCC(C)C(=O)OC (centres unmarked) [methyl-2-methylbutyrate, methyl 2-methylbutyrate], the “interaction with guaiacol” value [1] is reported as “promising effects”, the “interaction with guaiacol” value [1, 7] is reported as “three largest interactions” and the “perceived pleasantness of mixtures with guaiacol” value [4] is reported as “no effect of perceived pleasantness”. For the same molecule, the “effect on perceived intensity of guaiacol in a physical mixture” value ([4]; male participants (N=6)) was “significant decrease”, the “effect on perceived intensity of guaiacol” value [4] was “suppressed perception of guaiacol, but only when applied via the same nostril as a physical mixture; also recorded: suppress perception” and the “effect on perceived intensity of guaiacol” value [4, 7] was “decreases the perceived intensity of guaiacol”.
